Source: US7910548B2, “Methods for treating obesity” (Amylin Pharmaceuticals, Inc., priority 1997, dated 2011)
Bridges are numbered along the chain shown (N, C = ends). Where no end group is shown, it is not given here.

Tests used:
[1] = Tritiated glucose gastric emptying assay; format: in vivo, rat
Description: In a phenol red method, which is described in Example 7 below, conscious rats receive by gavage an acoloric gel containing methyl cellulose and a phenol red indicator. Twenty minutes after gavage, animals are anesthetized using halothane, the stomach exposed and clamped at the pyloric and lower esophageal sphincters, removed and opened into an alkaline solution. Stomach content may be derived from the intensity of the phenol red in the alkaline solution, measured by absorbance at a wavelength of 560 nm. In a tritiated glucose method, which is described in Example 8 below, conscious rats are gavaged with tritiated glucose in water. The rats are gently restrained by the tail, the tip of which is anesthetized using lidocaine. Tritium in the plasma separated from tail blood is collected at various timepoints and detected in a beta counter. Test compounds are normally administered about one minute before gavage.
Conscious, non-fasted, Harlan Sprague Dawley rats were restrained by the tail, the tip of which was anesthetized using 2% lidocaine. Tritium in plasma separated from tail blood collected 0, 15, 30, 60, 90 and 120 minutes after gavage was detected in a beta counter.

[2] = Measurement of body weight in insulin-using Type II diabetes patients, 4-week study; format: in vivo, human; conditions: 4 weeks, change from baseline
Description: Study participants were males and females 25 to 78 years of age with a history of Type II diabetes mellitus requiring treatment with insulin for at least 6 months prior to the pre-screening visit. […] The study employed methods described in Thompson et al., Diabetes 46:632-636 (1997). Following a placebo lead-in period, patients were randomized to receive placebo or one of three dose regimens of ^25,28,29Pro-h-amylin (pramlintide) for 4 weeks: 30 μg QID (before breakfast, lunch, dinner and evening snack), 60 μg TID (before breakfast, lunch and dinner) or 60 μg QID (before breakfast, lunch, dinner and evening snack). Throughout the study drug period, patients self-administered four injections of study drug daily, within 15 minutes of each meal and the evening snack. During the double-blind period, patients randomized to pramlintide 60 μg TID administered placebo before the evening snack. Both pramlintide and placebo were administered as separate injections into the subcutaneous tissue of the anterior abdominal wall; the specific site was alternated after each injection. Patients were instructed to remain on their usual diet, insulin and exercise regimens throughout the study, unless otherwise instructed by the investigator, and to abstain from alcoholic beverages prior to all clinic visits.

[3] = biological target: amylin receptors in membranes of rat basal forebrain (nucleus accumbens and surrounding regions) (rat); test: competition with 125I-rat amylin on rat basal forebrain membranes

Molecule: rat amylin
- ED50 derived from the logistic fit (plasma tritium AUC over 30 minutes) ([1]; non-fasted Harlan Sprague Dawley rats, subcutaneous 1 minute before gavage): 0.35 μg
- Absorption of the label (plasma tritium) ([1]; subcutaneous injection, 0.1-100 μg): dose-dependently slowed and/or delayed the absorption of the label

Molecule: CC[C@H](C)[C@H](NC(=O)[C@@H]1CCCN1C(=O)CNC(=O)[C@H](Cc1ccccc1)NC(=O)[C@H](CC(N)=O)NC(=O)[C@H](CC(N)=O)NC(=O)[C@H](CO)NC(=O)[C@H](CO)NC(=O)[C@H](Cc1c[nH]cn1)NC(=O)[C@@H](NC(=O)[C@H](CC(C)C)NC(=O)[C@H](Cc1ccccc1)NC(=O)[C@H](CC(N)=O)NC(=O)[C@H](C)NC(=O)[C@H](CC(C)C)NC(=O)[C@H](CCCNC(=N)N)NC(=O)[C@H](CCC(N)=O)NC(=O)[C@@H](NC(=O)[C@H](C)NC(=O)[C@@H]1CSSC[C@H](NC(=O)[C@@H](N)CCCCN)C(=O)N[C@@H](CC(N)=O)C(=O)N[C@@H]([C@@H](C)O)C(=O)N[C@@H](C)C(=O)N[C@@H]([C@@H](C)O)C(=O)N1)[C@@H](C)O)C(C)C)C(=O)N[C@@H](CC(C)C)C(=O)N1CCC[C@H]1C(=O)N1CCC[C@H]1C(=O)N[C@H](C(=O)N[C@@H](CC(N)=O)C(=O)N[C@H](C(=O)NCC(=O)N[C@@H](CO)C(=O)N[C@@H](CC(N)=O)C(=O)N[C@H](C(=O)N[C@@H](Cc1ccc(O)cc1)C(N)=O)[C@@H](C)O)C(C)C)[C@@H](C)O [Pramlintide, ^25,28,29Pro-h-amylin]
- Body Weight: Change at Week 4, Median ([2]; 30 μg QID subcutaneous): -0.45 kg
- Body Weight: Change at Week 4, Median ([2]; 60 μg QID subcutaneous): -0.45 kg
- Body Weight: Change at Week 4, Median ([2]; 60 μg TID subcutaneous): -1.05 kg

Molecule: KDNTATKATQRLANFLVHSSNNFGAILSSTNVGSNTY (lactam 2-7; ends not checked) [^2,7Cyclo-[^2Asp, ^7Lys]-h-Amylin]
- IC50 [3]: 0.31 nM
